Activity calls are given as the source filed them. The calls are words filed in the database; no cut-off is given here. Peptide text beside a SMILES is read from it. * marks the point of attachment. Cbz = O=C(OCc1ccccc1)*
Key:
[1] = Cytotoxicity against human fibroblasts assessed as growth inhibition after 48 hrs by MTT assay; format: cell-based; conditions: Fibroblast
SW480 = assay: Cytotoxicity against human SW480 cells assessed as growth inhibition after 48 hrs by MTT assay; format: functional, cell-based; conditions: SW480, 48 h
SK-OV-3 = assay: Cytotoxicity against human SKOV3 cells assessed as growth inhibition after 48 hrs by MTT assay; format: functional, cell-based; conditions: SK-OV-3, 48 h
HeLa = assay: Cytotoxicity against human HeLa cells assessed as growth inhibition after 48 hrs by MTT assay; format: functional, cell-based
JIYOYE = assay: Cytotoxicity against human Jijoye cells assessed as growth inhibition after 48 hrs by MTT assay; format: functional, cell-based
K562 = assay: Cytotoxicity against human K562 cells assessed as growth inhibition after 48 hrs by MTT assay; format: functional, cell-based; conditions: K562, 48 h
Jurkat [2] = assay: Cytotoxicity against human Jurkat cells assessed as growth inhibition after 48 hrs by MTT assay; format: functional, cell-based
Jurkat [3] = assay: Inhibition of proteasome in human Jurkat cells assessed as accumulation of ubiquitinated protein at 50 uM by Western blot analysis; format: cell-based
Jurkat [4] = assay: Inhibition of trypsin-like activity of proteasome in human Jurkat cells at 50 uM after 30 mins by fluorescence assay; format: cell-based
Jurkat [5] = assay: Inhibition of chymotrypsin-like activity of proteasome in human Jurkat cells assessed as residual activity at 50 uM after 30 mins by fluorescence assay relative to control; format: cell-based
Jurkat [6] = assay: Inhibition of trypsin-like activity of proteasome isolated from human Jurkat cells using Boc-LRR-AMC as substrate assessed as residual activity at 100 uM incubated for 30 mins followed by substrate addition measured for 2 hrs by fluorescence assay relative to control; format: cell-free
Jurkat [7] = assay: Inhibition of trypsin-like activity of proteasome isolated from human Jurkat cells using Boc-LRR-AMC as substrate assessed as residual activity at 50 uM incubated for 30 mins followed by substrate addition measured for 2 hrs by fluorescence assay relative to control; format: cell-free
Jurkat [8] = assay: Inhibition of trypsin-like activity of proteasome isolated from human Jurkat cells using Boc-LRR-AMC as substrate assessed as residual activity at 25 uM incubated for 30 mins followed by substrate addition measured for 2 hrs by fluorescence assay relative to control; format: cell-free
Jurkat [9] = assay: Inhibition of chymotrypsin-like activity of proteasome isolated from human Jurkat cells using Suc-LLVY-AMC as substrate assessed as residual activity at 100 uM incubated for 30 mins followed by substrate addition measured for 2 hrs by fluorescence assay relative to control; format: cell-free
Jurkat [10] = assay: Inhibition of chymotrypsin-like activity of proteasome isolated from human Jurkat cells using Suc-LLVY-AMC as substrate assessed as residual activity at 50 uM incubated for 30 mins followed by substrate addition measured for 2 hrs by fluorescence assay relative to control; format: cell-free
Jurkat [11] = assay: Inhibition of chymotrypsin-like activity of proteasome isolated from human Jurkat cells using Suc-LLVY-AMC as substrate assessed as residual activity at 25 uM incubated for 30 mins followed by substrate addition measured for 2 hrs by fluorescence assay relative to control; format: cell-free
Jurkat [12] = assay: Induction of apoptosis in human Jurkat cells assessed as dead cells at 20 uM by propidium iodide/annexin V staining-based FACS flow cytometric analysis (reference value: 0.66%); format: functional
Jurkat [13] = assay: Induction of apoptosis in human Jurkat cells assessed as late apoptotic cells at 20 uM by propidium iodide/annexin V staining-based FACS flow cytometric analysis (reference value: 0.37%); format: functional
Jurkat [14] = assay: Induction of apoptosis in human Jurkat cells assessed as early apoptotic cells at 20 uM by propidium iodide/annexin V staining-based FACS flow cytometric analysis (reference value: 1.87%); format: functional
Jurkat [15] = assay: Cell cycle arrest in human Jurkat cells assessed as accumulation at sub G0/G1 phase at 20 uM by propidium iodide staining-based FACS flow cytometric analysis (reference value: 4.81%); format: functional
Jurkat [16] = assay: Cell cycle arrest in human Jurkat cells assessed as accumulation at G2/M phase at 20 uM by propidium iodide staining-based FACS flow cytometric analysis (reference value: 16.63%); format: functional
Jurkat [17] = assay: Cell cycle arrest in human Jurkat cells assessed as accumulation at S phase at 20 uM by propidium iodide staining-based FACS flow cytometric analysis (reference value: 26.91%); format: functional
Jurkat [18] = assay: Cell cycle arrest in human Jurkat cells assessed as accumulation at G0/G1 phase at 20 uM by propidium iodide staining-based FACS flow cytometric analysis (reference value: 52.59%); format: functional
Jurkat [19] = assay: Induction of apoptosis in human Jurkat cells assessed as caspase 3/7 activation at 20 uM after overnight incubation by luminescence assay; format: functional, cell-based
Jurkat [20] = assay: Inhibition of trypsin-like activity of proteasome isolated from human Jurkat cells using Boc-LRR-AMC as substrate assessed as residual activity at 10 uM incubated for 30 mins followed by substrate addition measured for 2 hrs by fluorescence assay relative to control; format: cell-free
Jurkat [21] = assay: Inhibition of chymotrypsin-like activity of proteasome isolated from human Jurkat cells using Suc-LLVY-AMC as substrate assessed as residual activity at 10 uM incubated for 30 mins followed by substrate addition measured for 2 hrs by fluorescence assay relative to control; format: cell-free
Jurkat [22] = assay: Cell cycle arrest in human Jurkat cells assessed at 20 uM by propidium iodide staining-based FACS flow cytometric analysis; format: functional

SMILES	IC50 [1]	IC50 (SW480)	IC50 (SK-OV-3)	IC50 (HeLa)	IC50 (JIYOYE)	IC50 (K562)	IC50 (Jurkat [2])	further results
COC(=O)[C@]12CCC(C)(C)C[C@H]1[C@H]1C(=O)C[C@@H]3[C@@]4(C)CC=C(B5OC(C)(C)C(C)(C)O5)C(C)(C)[C@@H]4CC[C@@]3(C)[C@]1(C)CC2	> 50 µM	> 50 µM	> 50 µM	> 50 µM	> 50 µM	> 50 µM	> 50 µM	–
CC1(C)CC[C@]2(C(=O)NCC(=O)O)CC[C@]3(C)C(=CC[C@@H]4[C@@]5(C)CC=C(B6OC(C)(C)C(C)(C)O6)C(C)(C)[C@@H]5CC[C@]43C)[C@@H]2C1	> 50 µM	17.9 µM	15.4 µM	28 µM	13.4 µM	18.2 µM	15.5 µM	inhibition (Jurkat [3]): Active; inhibition (Jurkat [4]): Active; Activity (Jurkat [5]): 25%; Activity (Jurkat [6]): 51.4%; Activity (Jurkat [7]): 84.1%; Activity (Jurkat [8]): 85.3%; Activity (Jurkat [9]): 59.3%; Activity (Jurkat [10]): 64%; Activity (Jurkat [11]): 83.6%; Activity (Jurkat [12]): 19.81%; Activity (Jurkat [13]): 13.22%; Activity (Jurkat [14]): 3.73%; Activity (Jurkat [15]): 13.79%; Activity (Jurkat [16]): 10.6%; Activity (Jurkat [17]): 13.27%; Activity (Jurkat [18]): 82.2%; Activity (Jurkat [19]): Active
CC1(C)CC[C@]2(C#N)CC[C@]3(C)C(=CC[C@@H]4[C@@]5(C)CC=C(B6OC(C)(C)C(C)(C)O6)C(C)(C)[C@@H]5CC[C@]43C)[C@@H]2C1	> 50 µM	> 50 µM	> 50 µM	> 50 µM	> 50 µM	> 50 µM	> 50 µM	–
COC(=O)CNC(=O)[C@]12CCC(C)(C)C[C@H]1C1=CC[C@@H]3[C@@]4(C)CC=C(B5OC(C)(C)C(C)(C)O5)C(C)(C)[C@@H]4CC[C@@]3(C)[C@]1(C)CC2	> 50 µM	> 50 µM	> 50 µM	> 50 µM	> 50 µM	> 50 µM	> 50 µM	–
COC(=O)[C@]12CCC(C)(C)C[C@H]1[C@H]1/C(=N\O)C[C@@H]3[C@@]4(C)CC=C(B5OC(C)(C)C(C)(C)O5)C(C)(C)[C@@H]4CC[C@@]3(C)[C@]1(C)CC2	> 50 µM	> 50 µM	> 50 µM	> 50 µM	> 50 µM	> 50 µM	> 50 µM	–
CC(C)C[C@@H](C=O)NC(=O)[C@H](CC(C)C)NC(=O)[C@H](CC(C)C)NC(=O)OCc1ccccc1 (Cbz-Leu-Leu-Leu-aldehyde)	–	–	–	–	–	–	–	Activity (Jurkat [20]): < 20%; Activity (Jurkat [21]): < 20%
COC(=O)[C@]12CCC(C)(C)C[C@H]1C1=CC[C@@H]3[C@@]4(C)CC=C(B5OC(C)(C)C(C)(C)O5)C(C)(C)[C@@H]4CC[C@@]3(C)[C@]1(C)CC2	> 50 µM	> 50 µM	> 50 µM	> 50 µM	> 50 µM	> 50 µM	> 50 µM	–
C[C@H](NC(=O)[C@]12CCC(C)(C)C[C@H]1C1=CC[C@@H]3[C@@]4(C)CC=C(B5OC(C)(C)C(C)(C)O5)C(C)(C)[C@@H]4CC[C@@]3(C)[C@]1(C)CC2)C(=O)O	> 50 µM	28.7 µM	31.2 µM	30.5 µM	19.4 µM	20.1 µM	21.4 µM	inhibition (Jurkat [3]): Active; inhibition (Jurkat [4]): Active; Activity (Jurkat [5]): 37%; Activity (Jurkat [6]): 50.8%; Activity (Jurkat [7]): 70.7%; Activity (Jurkat [8]): 85.1%; Activity (Jurkat [9]): 47.2%; Activity (Jurkat [10]): 84.3%; Activity (Jurkat [11]): 91.7%; Activity (Jurkat [12]): 16.33%; Activity (Jurkat [13]): 13.67%; Activity (Jurkat [14]): 5.37%; Activity (Jurkat [15]): 15.82%; Activity (Jurkat [16]): 12.19%; Activity (Jurkat [17]): 14.24%; Activity (Jurkat [18]): 58.78%; Activity (Jurkat [19]): Active
COC(=O)[C@H](C)NC(=O)[C@]12CCC(C)(C)C[C@H]1C1=CC[C@@H]3[C@@]4(C)CC=C(B5OC(C)(C)C(C)(C)O5)C(C)(C)[C@@H]4CC[C@@]3(C)[C@]1(C)CC2	> 50 µM	> 50 µM	> 50 µM	> 50 µM	> 50 µM	> 50 µM	> 50 µM	–
CC1(C)CC[C@]2(C(N)=O)CC[C@]3(C)C(=CC[C@@H]4[C@@]5(C)CC=C(B6OC(C)(C)C(C)(C)O6)C(C)(C)[C@@H]5CC[C@]43C)[C@@H]2C1	> 50 µM	> 50 µM	> 50 µM	34.7 µM	8.4 µM	8.3 µM	21.6 µM	Activity (Jurkat [6]): 72.5%; Activity (Jurkat [7]): 77.9%; Activity (Jurkat [8]): 81.6%; Activity (Jurkat [9]): 85.6%; Activity (Jurkat [10]): 92.4%; Activity (Jurkat [11]): 95.8%; Activity (Jurkat [22]): inactive; Activity (Jurkat [19]): Active
CC1(C)CC[C@]2(C(=O)O)CC[C@]3(C)C(=CC[C@@H]4[C@@]5(C)CC=C(B6OC(C)(C)C(C)(C)O6)C(C)(C)[C@@H]5CC[C@]43C)[C@@H]2C1	> 50 µM	> 50 µM	> 50 µM	> 50 µM	> 50 µM	> 50 µM	> 50 µM	–
COC(=O)[C@]12CCC(C)(C)C[C@H]1[C@H]1C(=O)C=C3[C@@]4(C)CC=C(B5OC(C)(C)C(C)(C)O5)C(C)(C)[C@@H]4CC[C@@]3(C)[C@]1(C)CC2	> 50 µM	> 50 µM	> 50 µM	> 50 µM	> 50 µM	> 50 µM	> 50 µM	–

— ChEMBL document CHEMBL2375265, “Novel oleanolic vinyl boronates: synthesis and antitumor activity” (Eur J Med Chem, 2013)
